From publication PMC8191578, “Targeting the TLR2 Receptor With a Novel Thymopentin-Derived Peptide Modulates Immune Responses” (Frontiers in Immunology, 2021)
Marks after values point to notes of the source that are not given here. Where no end group is shown, it is not given here.

Columns and labels:
[1] = Ex vivo stability in human serum; type: in vitro ADME; settings: human serum (Sigma), lipids removed by centrifugation, pre-incubated 15 min at 37°C, peptide 10 µg/mL, HPLC, logarithm-linear regression, mean ± SD, n=5
Protocol: Human serum was purchased from Sigma (St. Louis, MO, USA). […] The half-lives of CATH2, TP5, and CbTP (10 µg/mL) were evaluated in vitro following incubation at 37°C in human serum at different time points. The samples were collected into prechilled tubes containing 1 mL of acidic acetone (hydrochloric acid/acetone/H2O, 1:40:5, by volume) and centrifuged at 2,000 ×g for 20 min at 4°C.
The obtained precipitates were dried in vacuo, after which the dried precipitates were dissolved in 0.5 mL of 1 M acetic acid. The peptide analysis was carried out according to the protocol for the study of TP5 using HPLC ([26]). The half-lives of the target peptides were calculated by a logarithm-linear regression analysis of the peptide concentrations.

recombinant TLR2 = target: T1, recombinant TLR2 (Homo sapiens, UniProt O60603); test: Surface plasmon resonance binding to immobilized TLR2; settings: SPR, ProteOn XPR36, GLH chip, 25°C, PBS with 1% Tween 20; CbTP 0-10 μM; 1:1 model; read-out: association rate constant Ka
T1 construct: purchased R&D Systems
Protocol: Surface plasmon resonance (SPR) experiments were performed using a ProteOn XPR36 instrument (Bio-Rad, Hercules, CA, USA) with a ProteOn GLH sensor chip (Bio-Rad) at 25°C. The running buffer (PBS with 1% Tween 20) was continuously passed into reaction chamber. An SPR sensing chip with recombinant TLR2 (R&D Systems, Minneapolis, MN, USA) was immobilized by amino coupling to capture CbTP, as described in the manufacturer’s protocol. The binding affinity of CbTP to the TLR2-covered surface was examined in varying concentrations of the CbTP peptide (0, 1.25, 2.5, 5, and 10 μM). The running buffer was injected into the empty channels as a reference. To regenerate the chip surface at the end of each experiment, 10 mM Gly-HCl buffer (pH 2.5) was injected. Data analysis was conducted using ProteOn manager software (version 2.0). The binding curves were processed for the start injection alignment and baseline. The reference-subtracted sensorgram was then fitted to the curves labeling a homogeneous 1:1 model and protein surface data were grouped together to fit the association (K a) and dissociation (K d) rate constants. The equilibrium dissociation constant (KD) for the peptide-TLR2 interaction was calculated using the following equation: […]

T1 sequence (O60603 21-784, species assumed): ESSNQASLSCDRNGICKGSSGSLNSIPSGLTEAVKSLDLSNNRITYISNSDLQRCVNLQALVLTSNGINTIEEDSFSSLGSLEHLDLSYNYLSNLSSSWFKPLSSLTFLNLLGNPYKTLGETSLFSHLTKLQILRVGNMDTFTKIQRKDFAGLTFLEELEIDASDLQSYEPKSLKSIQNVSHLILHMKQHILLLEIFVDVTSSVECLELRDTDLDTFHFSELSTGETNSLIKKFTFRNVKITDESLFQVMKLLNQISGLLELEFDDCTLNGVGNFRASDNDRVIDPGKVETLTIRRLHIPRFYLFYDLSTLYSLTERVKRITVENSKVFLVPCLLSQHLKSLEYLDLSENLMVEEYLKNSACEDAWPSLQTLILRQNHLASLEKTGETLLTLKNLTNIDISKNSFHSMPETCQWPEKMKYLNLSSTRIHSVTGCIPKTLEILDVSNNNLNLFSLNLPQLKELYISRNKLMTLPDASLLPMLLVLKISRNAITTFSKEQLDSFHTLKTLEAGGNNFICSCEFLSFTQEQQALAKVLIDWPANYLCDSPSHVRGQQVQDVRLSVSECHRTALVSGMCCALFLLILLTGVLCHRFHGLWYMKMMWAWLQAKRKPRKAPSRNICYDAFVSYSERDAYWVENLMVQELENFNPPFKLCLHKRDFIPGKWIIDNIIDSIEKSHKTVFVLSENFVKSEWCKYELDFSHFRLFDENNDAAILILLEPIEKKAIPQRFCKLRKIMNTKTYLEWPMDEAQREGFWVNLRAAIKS

Sequence	t1/2 in human serum [1]	kon (recombinant TLR2)
RFGRFLRKIRRFRPKVTITIQGSARFG [CATH2, Cathelicidin-2, reference compound]	302 ± 34.5^a min	
RFGRFLRKIRRFRRKDVY [CbTP]	353 ± 41.3^a min	3.61e+08 M⁻¹ s⁻¹
